Results taken from patent US20230172204A1 (BASF SE, priority 2020, published 2023).

Tests used:
[1] = test system: Phakopsora pachyrhizi (F129L); experiment: Protective control of soybean rust on soybeans (PHAKPA P2); assay type: in vivo; details: for % PHAKPA (F129L) Disease level P2 at 4 ppm: protective P2, 4 ppm; for % PHAKPA (F129L) Disease level P2 at 4 ppm / % PHAKPA (F129L) Disease level P2 at 16 ppm: soybean rust F129L; for % PHAKPA (F129L) Disease level P2 at 16 ppm: protective P2, 16 ppm
[2] = test system: Phakopsora pachyrhizi (F129L); experiment: Protective control of soybean rust on soybeans (PHAKPA P6); assay type: in vivo; details: for % PHAKPA (F129L) Disease level P6 at 4 ppm: protective P6, 4 ppm; for % PHAKPA (F129L) Disease level P6 at 4 ppm / % PHAKPA (F129L) Disease level P6 at 16 ppm: soybean rust F129L; for % PHAKPA (F129L) Disease level P6 at 16 ppm: protective P6, 16 ppm
[3] = P2 protective, % diseased leaf area
[4] = P6 protective, % diseased leaf area

Row | SMILES | PHAKPA (F129L) Disease level (%) P2 at 4 ppm [1, 3] [%] | % PHAKPA (F129L) Disease level P2 at 4 ppm [1] [%] | % PHAKPA (F129L) Disease level P2 at 16 ppm [1] [%] | PHAKPA (F129L) Disease level (%) P6 at 4 ppm [2, 4] [%] | % PHAKPA (F129L) Disease level P6 at 4 ppm [2] [%] | % PHAKPA (F129L) Disease level P6 at 16 ppm [2] [%] | PHAKPA (F129L) Disease level (%) P2 at 16 ppm ([1]; P2 protective, 16 ppm, % diseased leaf area) [%] | PHAKPA (F129L) Disease level (%) P6 at 16 ppm ([2]; P6 protective, 16 ppm, % diseased leaf area) [%]
1 | CNC(=O)/C(=N/OC)c1cccc(C)c1CO/N=C(\C)c1cc(Cl)cc(Cl)c1 [Ex. 4, (2E)-2-[2-[[(E)-1-(3,5-dichlorophenyl)ethylideneamino]oxymethyl]-3-methyl-phenyl]-2-methoxyimino-N-methyl-acetamide] | 2 | 2 | 0 | 17 | 13 | 1 |  | 
2 | C#Cc1cc(F)cc(/C(C)=N/OCc2c(C)cccc2/C(=N\OC)C(=O)NC)c1 [compound 55] |  | 3 | 1 |  | 13 | 5 |  | 
3 | C=Cc1cccc(/C(=N\OC)C(=O)NC)c1CO/N=C(\C)c1ccccc1 [compound 400] |  | 2 | 0 |  | 8 | 0 |  | 
4 | COC/C(=N\OCc1c(C)cccc1/C(=N\OC)C(=O)OC)c1cccc(C(F)(F)F)c1 [compound 191] |  | 77 | 2 |  | 83 | 22 |  | 
5 | CNC(=O)/C(=N/OC)c1ccccc1CO/N=C(\C)c1cc(Cl)ccc1Cl [reference compound] | 87 |  |  | 97 |  |  |  | 
6 | CNC(=O)/C(=N/OC)c1cccc(C)c1CO/N=C(\C)c1cccc(C#N)c1 [compound 112] |  | 13 | 3 |  | 30 | 9 |  | 
7 | CNC(=O)/C(=N/OC)c1cccc(C)c1CO/N=C(\C)c1cccc(OC(F)F)c1 [compound 81] |  | 6 | 0 |  | 2 | 0 |  | 
8 | CO/N=C(/C(=O)OC)c1cccc(C)c1CO/N=C(\C)c1cccc(Br)c1F [compound 134] |  | 37 | 10 |  | 22 | 7 |  | 
9 | CO/N=C(/C(=O)OC)c1cccc(C)c1CO/N=C(\C)c1ccc(Br)cc1C(F)(F)F [compound 257] |  | 93 | 35 |  | 100 | 57 |  | 
10 | CNC(=O)/C(=N/OC)c1ccccc1CO/N=C(\C)c1ccc(Cl)c(C(F)(F)F)c1 [reference compound] |  |  |  |  |  |  | 11 | 4
11 | CNC(=O)/C(=N/OC)c1cccc(C)c1CO/N=C(\C)c1cccc(F)c1OC(F)(F)F [compound 354] |  | 17 | 2 |  | 21 | 4 |  | 
12 | CNC(=O)/C(=N/OC)c1cccc(C)c1CO/N=C(\C)c1cc(F)ccc1Br [compound 248] |  | 33 | 2 |  | 30 | 2 |  | 
13 | CNC(=O)/C(=N/OC)c1cccc(C)c1CO/N=C(\CC(F)(F)F)c1cc(Cl)cc(Cl)c1 [compound 255] |  | 97 | 83 |  | 100 | 87 |  | 
14 | CNC(=O)/C(=N/OC)c1cccc(C)c1CO/N=C(\C)c1cc(Br)cc(Br)c1 [compound 142] |  | 19 | 5 |  | 26 | 5 |  | 
